Data reported in ChEMBL document CHEMBL5321279 (J Med Chem, 2023).

Experiments:
[1] = Cytotoxicity against human MT4 cells assessed as reduction in cell growth measured after 5 days by CellTiter-Glo assay; type: toxicity, cell-based; details: MT4 cells, time 5 day
[2] = tested on: SARS-CoV-2; test: Antiviral activity against SARS-CoV-2 Omicron BQ1.1 infected in human A549-hACE2-TMPRSS2 cells assessed as reduction in viral replication pre-incubated with compound followed by viral infection measured after 72 hrs by ELISA assay; type: functional, organism-based; details: Severe acute respiratory syndrome coronavirus 2, Omicron BQ1.1, A549-hACE2-TMPRSS2
[3] = tested on: SARS-CoV-2; test: Antiviral activity against Nluc-fused SARS-CoV-2 infected in human A549-ACE2 cells assessed as reduction in cell viability incubated for 2 days by Nano-Glo reagent based analysis; type: functional, organism-based; details: Severe acute respiratory syndrome coronavirus 2, A549-ACE2, 48 h
[4] = tested on: SARS-CoV-2; test: Antiviral activity against […]-fused SARS-CoV-2 infected in human NHBE-T cells assessed as reduction in cell viability incubated for 1 day by Nano-Glo reagent based analysis; type: functional, organism-based; details: Severe acute respiratory syndrome coronavirus 2, NHBE-T, 24 h
[5] = tested on: SARS-CoV-2; test: Antiviral activity against SARS-CoV-2 WA1 infected in human A549-hACE2-TMPRSS2 cells assessed as reduction in viral replication pre-incubated with compound followed by viral infection measured after 72 hrs by ELISA assay; type: functional, organism-based; details: Severe acute respiratory syndrome coronavirus 2, WA1, A549-hACE2-TMPRSS2
[6] = tested on: SARS-CoV-2; test: Antiviral activity against SARS-CoV-2 Delta (B.1.617.2) infected in human A549-hACE2-TMPRSS2 cells assessed as reduction in viral replication pre-incubated with compound followed by viral infection measured after 48 hrs by ELISA assay; type: functional, organism-based; details: Severe acute respiratory syndrome coronavirus 2, Delta (B.1.617.2)
[7] = tested on: SARS-CoV-2; test: Antiviral activity against SARS-CoV-2 Omicron BF.5 infected in human A549-hACE2-TMPRSS2 cells assessed as fold reduction in viral replication pre-incubated with compound followed by viral infection measured after 72 hrs by ELISA assay relative to SARS-CoV-2 WA1; type: functional, Severe acute respiratory syndrome coronavirus 2
[8] = Cytotoxicity against human A549-ACE2 cells assessed as reduction in cell growth measured after 48 hrs by CellTiter-Glo assay; type: toxicity, cell-based; details: for CC50 at 48 h: A549-ACE2 cells
[9] = tested on: SARS-CoV-2; test: Antiviral activity against SARS-CoV-2 Omicron XBB infected in human A549-hACE2-TMPRSS2 cells assessed as reduction in viral replication pre-incubated with compound followed by viral infection measured after 72 hrs by ELISA assay; type: functional, organism-based; details: Severe acute respiratory syndrome coronavirus 2, Omicron XBB
[10] = tested on: SARS-CoV-2; test: Antiviral activity against SARS-CoV-2 Omicron BA.1 infected in human A549-hACE2-TMPRSS2 cells assessed as reduction in viral replication pre-incubated with compound followed by viral infection measured after 72 hrs by ELISA assay; type: functional, organism-based; details: Severe acute respiratory syndrome coronavirus 2, Omicron BA.1, A549-hACE2-TMPRSS2
[11] = tested on: SARS-CoV-2; test: Antiviral activity against SARS-CoV-2 Omicron BA.2.75 infected in human A549-hACE2-TMPRSS2 cells assessed as reduction in viral replication pre-incubated with compound followed by viral infection measured after 72 hrs by ELISA assay; type: functional, organism-based; details: Severe acute respiratory syndrome coronavirus 2, Omicron BA.2.75, A549-hACE2-TMPRSS2
[12] = tested on: SARS-CoV-2; test: Antiviral activity against SARS-CoV-2 Omicron BQ1.1 infected in human A549-hACE2-TMPRSS2 cells assessed as fold reduction in viral replication pre-incubated with compound followed by viral infection measured after 72 hrs by ELISA assay relative to SARS-CoV-2 WA1; type: functional, Severe acute respiratory syndrome coronavirus 2
[13] = tested on: SARS-CoV-2; test: Antiviral activity against SARS-CoV-2 Omicron BA.2 infected in human A549-hACE2-TMPRSS2 cells assessed as reduction in viral replication pre-incubated with compound followed by viral infection measured after 72 hrs by ELISA assay; type: functional, organism-based; details: Severe acute respiratory syndrome coronavirus 2, Omicron BA.2, A549-hACE2-TMPRSS2
[14] = tested on: SARS-CoV-2; test: Antiviral activity against SARS-CoV-2 Omicron BA.5 infected in human A549-hACE2-TMPRSS2 cells assessed as reduction in viral replication pre-incubated with compound followed by viral infection measured after 72 hrs by ELISA assay; type: functional, organism-based; details: Severe acute respiratory syndrome coronavirus 2, Omicron BA.5, A549-hACE2-TMPRSS2
[15] = tested on: SARS-CoV-2; test: Antiviral activity against SARS-CoV-2 Omicron BF.5 infected in human A549-hACE2-TMPRSS2 cells assessed as reduction in viral replication pre-incubated with compound followed by viral infection measured after 72 hrs by ELISA assay; type: functional, organism-based; details: Severe acute respiratory syndrome coronavirus 2, Omicron BF.5, A549-hACE2-TMPRSS2
[16] = tested on: SARS-CoV-2; test: Antiviral activity against SARS-CoV-2 Omicron BA.4.6 infected in human A549-hACE2-TMPRSS2 cells assessed as reduction in viral replication pre-incubated with compound followed by viral infection measured after 72 hrs by ELISA assay; type: functional, organism-based; details: Severe acute respiratory syndrome coronavirus 2, Omicron BA.4.6, A549-hACE2-TMPRSS2
[17] = tested on: SARS-CoV-2; test: Antiviral activity against SARS-CoV-2 Delta (B.1.617.2) infected in human A549-hACE2-TMPRSS2 cells assessed as fold reduction in viral replication pre-incubated with compound followed by viral infection measured after 48 hrs by ELISA assay relative to SARS-CoV-2 WA1; type: functional, Severe acute respiratory syndrome coronavirus 2
[18] = tested on: SARS-CoV-2; test: Antiviral activity against SARS-CoV-2 Omicron BA.4 infected in human A549-hACE2-TMPRSS2 cells assessed as fold reduction in viral replication pre-incubated with compound followed by viral infection measured after 72 hrs by ELISA assay relative to SARS-CoV-2 WA1; type: functional, Severe acute respiratory syndrome coronavirus 2
[19] = tested on: SARS-CoV-2; test: Antiviral activity against SARS-CoV-2 Omicron BA.4 infected in human A549-hACE2-TMPRSS2 cells assessed as reduction in viral replication pre-incubated with compound followed by viral infection measured after 72 hrs by ELISA assay; type: functional, organism-based; details: Severe acute respiratory syndrome coronavirus 2, Omicron BA.4, A549-hACE2-TMPRSS2
[20] = tested on: SARS-CoV-2; test: Antiviral activity against SARS-CoV-2 Omicron BA.2.12.1 infected in human A549-hACE2-TMPRSS2 cells assessed as reduction in viral replication pre-incubated with compound followed by viral infection measured after 72 hrs by ELISA assay; type: functional, organism-based; details: Severe acute respiratory syndrome coronavirus 2, Omicron BA.2.12.1, A549-hACE2-TMPRSS2
[21] = tested on: MRC5; test: Cytotoxicity against human MRC5 cells assessed as reduction in cell growth measured after 5 days by CellTiter-Glo assay; type: toxicity, cell-based; details: mrc5, 120 h, time 5 day
[22] = Apparent permeability of the compound from apical to basolateral side in human Caco-2 cells incubated for 2 hrs by LC-MS/MS analysis; type: ADME, cell-based; details: Caco-2
[23] = Thermodynamic aqueous solubility at pH 7 measured at 24 hrs by UPLC analysis; type: physicochemical; details: aqueous solution, read-out: Therm_solubility
[24] = tested on: Huh-7; test: Cytotoxicity against human Huh-7 cells assessed as reduction in cell growth measured after 5 days by CellTiter-Glo assay; type: toxicity, cell-based; details: huh-7, 120 h, time 5 day
[25] = Thermodynamic aqueous solubility at pH 2 measured at 72 hrs by UPLC analysis; type: physicochemical; details: aqueous solution, read-out: Therm_solubility

| SMILES | CC50 at 120 h [1] [µM] | EC50 [2] [µM] | EC50 [3] [µM] | EC50 [4] [µM] | EC50 [5] [µM] | EC50 [6] [µM] | fold change (FC) [7] | EC50 [9] [µM] | EC50 [10] [µM] | EC50 [11] [µM] | fold change (FC) [12] | EC50 [13] [µM] | EC50 [14] [µM] | EC50 [15] [µM] | EC50 [16] [µM] | fold change (FC) [17] | fold change (FC) [18] | EC50 [19] [µM] | EC50 [20] [µM] | CC50 [21] [µM] | further results |
| --- | --- | --- | --- | --- | --- | --- | --- | --- | --- | --- | --- | --- | --- | --- | --- | --- | --- | --- | --- | --- | --- |
| CCC(CC)COC(=O)[C@H](C)N[P@](=O)(OC[C@H]1O[C@@](C#N)(c2ccc3c(N)ncnn23)[C@H](O)[C@@H]1O)Oc1ccccc1 | 1.7 | 0.09 | 0.06 | 0.04 | 0.08 | 0.07 | 0.94 | 0.09 | 0.04 | 0.03 | 1.12 | 0.02 | 0.11 | 0.13 | 0.09 | 0.59 | 0.15 | 0.02 | 0.03 | – | CC50 ([8]; a549-ace2, 48 h): 22.9 µM |
| CC(C)C(=O)OC[C@H]1O[C@@](C#N)(c2ccc3c(N)ncnn23)[C@H](O)[C@@H]1O [OBELDESIVIR] | > 50 | 2.44 | 1.9 | 0.43 | 1.01 | 0.74 | 0.8 | 2.03 | 0.65 | 0.69 | 1.33 | 0.71 | 1.3 | 3.13 | 2.45 | 0.72 | 0.26 | 0.4 | 0.44 | > 44 | Papp A→B at 2 h [22]: 1 ×10⁻⁶ cm/s; solubility thermodynamic at 24 h [23]: ≥ 1000 µg/mL; CC50 at 48 h [8]: > 50 µM; CC50 [24]: > 44 µM; solubility thermodynamic at 72 h [25]: ≥ 40000 µg/mL |
| N#C[C@@]1(c2ccc3c(N)ncnn23)O[C@H](CO)[C@@H](O)[C@H]1O [GS-441524] | 69 | 8.77 | 2.49 | 3.25 | 4.45 | 3.26 | – | 6.3 | 2.66 | 2.58 | 1.33 | 1.33 | 4.8 | 7.78 | 5.4 | – | – | 1.63 | 1.79 | > 89 | Papp A→B at 2 h [22]: 0.1 ×10⁻⁶ cm/s; solubility thermodynamic at 24 h [23]: ≤ 70 µg/mL; CC50 at 48 h [8]: > 50 µM; CC50 [24]: > 89 µM; solubility thermodynamic at 72 h [25]: ≤ 1000 µg/mL |
